Like-named read-outs stand apart in the source and are kept apart here.
Test: Multiple-dose (successive i.g.) plasma pharmacokinetics
Type: in vivo, SD rats
Conditions: for Cmax / AUC(0-inf) / AUC(0-t) / Tmax / MRT last / Vd/F / half-life: SD, rat, plasma, po; for MRT last: read-out: MRT0–t; for Vd/F: read-out: Vz/F; for half-life: read-out: t1/2z (converted)
Experimental: Pharmacokinetic studies of verticinone after intravenous (i.v.) and intragastrical (i.g.) administration to rats were designed to determine pharmacokinetic parameters and absolute bioavailability. For i.g administration, verticinone was suspended in 0.5% carboxymethyl cellulose sodium (CMC-Na) to final concentrations of 0.2, 0.4 and 0.8 mg/mL. Verticinone was dissolved in 20% ethanol/80% water to final concentration of 0.08 mg/mL for i.v. administration. For the i.v. group, five male and five female rats received a single dose of 0.4 mg/kg. Blood samples (0.25 mL) were obtained at 0, 4, 15, 30, 45, 60, 120, 240, 360, 480, 600 and 720 min after injection. For the single- i.g. group, fifteen male and fifteen female rats were divided into three groups, and each group received a single oral dose of 1, 2 and 4 mg/kg of verticinone, respectively. In addition, another five male and five female rats received multiple oral doses of 4 mg/kg/day, given as 2 mg/kg doses twice a day (one dose in the morning and the second dose 12 h later) for 7 days, then a single oral dose of 2 mg/kg on the eighth day. Blood samples (0.25 mL) were obtained at 0, 5, 15, 30, 45, 60, 90, 120, 240, 360, 480 and 720 min for male rats and at 0, 5, 10, 20, 30, 45, 60, 120, 240, 360, 480 and 720 min for female rats after oral administration (the eighth day for multiple-dose group). Blood samples were then centrifuged at 4000 rpm for 10 min, and the plasma was collected. All plasma samples were frozen and stored at −20 °C until analysis. Verticinone was isolated from plasma by liquid-liquid extraction according to our previously reported procedure.
The quantification of verticinone was performed by a LC-MS method based on the previously reported method with slight modifications. The liquid chromatography system consisted of a model 2010 chromatograph (Shimadzu, Kyoto, Japan) equipped with a Shim-Pack VP-ODS C18 column (150 mm × 2.0 mm, 5 μm). A Shimadzu 2010 mass spectrometer (Q-array-Octapole-Quadrupole mass analyzer) equipped with an electrospray ionization interface was used for MS detection. The mobile phase consisted of (A) distilled water and (B) methanol, and the flow rate was 0.2 mL/min. Chromatography separation was achieved using a gradient elution program, as follows: 0.03→6.0 min, B% 15→85; 6.0→7.0 min, B% 85→85; 7.0→8.0 min, B% 85→15; 8.0–12.0 min, B% 15→15. The column and autosampler tray temperature were kept constant at 35 °C and 20 °C, respectively. For the determination of verticinone, the positive mode was selected, along with the conditions as follows.
CDL voltage […], probe voltage 4.5 kV, CDL temperature 250 °C, block temperature 200 °C, gas flow 1.5 L/min. Hupehenine was used as the internal standard (IS). Both verticinone and IS were detected using selected ion monitoring (SIM) at m/z 430.25 for verticinone and m/z 416.30 for hupehenine (IS), with a dwell time of 200 ms. Blank plasma, tissue homogenate, urine, feces homogenate and bile were used to prepare the corresponding calibration curves to avoid different matrix effects.
The pharmacokinetic parameters were calculated by the DAS 2.0 software (Chinese Pharmacological Association, Beijing, China) using a standard non-compartmental method. The Cmax and Tmax were determined from the observed data. The elimination rate constant (ke) was calculated by log-linear regression of verticinone concentrations during the terminal elimination phase and the half-life (t1/2) was calculated as 0.693/ke. The AUC0–t was calculated by the linear trapezoidal method. The AUC0–∞ was calculated as the sum of AUC0–t and the extrapolated part determined by Clast/ke. The total clearance (CL) was calculated as dose/AUC0–∞. The absolute bioavailability (F) was calculated by the following equation: F = [(AUCi.g./AUCi.v.) × (Dosei.v./Dosei.g.)] × 100%. The results were expressed as mean ± SD. Statistical analyses were performed using an unpaired Student’s t-test.

[1] = successive i.g. 2 mg/kg, female rats
[2] = successive i.g. 2 mg/kg, male rats

Which Cmax (successive i.g. 2 mg/kg (twice a day for 7 days, then single dose on eighth day), female rats) does the source give for `C[C@H]1CC[C@@H]2N(C1)C[C@H]1[C@@H]3C[C@H]4[C@@H](CC(=O)[C@H]5C[C@@H](O)CC[C@@]54C)[C@@H]3CC[C@@H]1[C@]2(C)O` [verticinone, Verticinone] here?
The Cmax was 19.9 ± 14 ng/mL.

And the AUC(0-inf) [1]?
The AUC(0-inf) was 43.4 ± 12 ng·h/mL.

And the AUC(0-t) [1]?
Its AUC(0-t) is 36.1 ± 15.2 ng·h/mL.

And the Tmax [1]?
Its Tmax is 0.38 ± 0.22 h.

And the MRT last [1]?
Its MRT last is 2.24 ± 0.28 h.

What about the Vd/F [1] of the same compound?
Its Vd/F is 485 ± 499 L/kg.

And the half-life [1]?
The half-life was 5.94 ± 4.84 h.

What about the AUC(0-inf) [2] of the same compound?
The AUC(0-inf) was 455 ± 125 ng·h/mL.

What about the AUC(0-t) [2] of the same compound?
The AUC(0-t) was 439 ± 126 ng·h/mL.

What about the Cmax [2] of the same compound?
The Cmax was 119 ± 26.8 ng/mL.

What about the Tmax [2] of the same compound?
The Tmax was 0.8 ± 0.21 h.

And the MRT last [2]?
Its MRT last is 2.98 ± 0.3 h.

And the Vd/F [2]?
The Vd/F was 13.8 ± 4.07 L/kg.

What about the half-life [2] of the same compound?
Its half-life is 2.08 ± 0.51 h.

And the “AUC, fold higher after successive i.g. than single i.g.” value (female rats, 2 mg/kg)?
The value was “approximately 2 fold”.

And the “CL, fold lower after successive i.g. than single i.g.” value (female rats, 2 mg/kg)?
The value was 2 fold.

And the “Cmax, fold higher after successive i.g. than single i.g.” value (female rats, 2 mg/kg)?
The value was “approximately 2 fold”.

Source: paper PMC6271218, “Pharmacokinetics, Tissue Distribution and Excretion of Verticinone from F. hupehensis in Rats” (Molecules, 2014)
